Reference: ChEMBL document CHEMBL1177715, “Design and synthesis of androgen receptor full antagonists bearing a p-carborane cage: promising ligands for anti-androgen withdrawal syndrome” (J Med Chem, 2010)
Activity calls are given as the source filed them. No cut-off for these calls is given here.

Key:
[1] = tested on: SC-3; experiment: Growth inhibition of mouse SC3 cells after 3 days by WST-8 assay; assay type: functional, cell-based; settings: SC-3, 72 h
[2] = tested on: LNCaP; experiment: Growth stimulatory activity of human LNCAP cells; assay type: functional, cell-based

Row | SMILES | IC50 [1] [nM] | Activity [2]
1 | C[C@](O)(CS(=O)(=O)c1ccc(F)cc1)C(=O)Nc1ccc(C#N)c(C(F)(F)F)c1 [(R)-BICALUTAMIDE] | 140 | 
2 | CC(C)C(=O)Nc1ccc([N+](=O)[O-])c(C(F)(F)F)c1 [FLUTAMIDE] | 720 | Active
3 | CC(C)(O)C(=O)Nc1ccc([N+](=O)[O-])c(C(F)(F)F)c1 [HYDROXYFLUTAMIDE] | 240 | Active
